Patent publication US7449582B2, “Compounds and compositions as protein kinase inhibitors” (IRM LLC, priority 2003, dated 2008)
pIC50: −log10 of the molar value.

How the values were obtained:
Bmx = molecular target: T1, Bmx (Homo sapiens, UniProt P51813); experiment: Upstate KinaseProfiler radio-enzymatic filter binding assay, Bmx; format: biochemical; settings: at a concentration of 10 μM; read-out: percentage inhibition
T1 construct: purchased Upstate
Protocol: (§1) Compounds of the invention are assessed for their ability to inhibit individual members of a panel of kinases (a partial, non-limiting list of kinases includes: Abl, BCR-Abl, CSK, JNK1, JNK2, PDGF-R, p38, p70S6K, TGFβ, SRC, EGFR, c-Kit, trkB, FGFR3, Fes, Lck, Syk, RAF, MKK4, MKK6 and SAPK2μ). The compounds are tested in duplicates at a final concentration of 10 μM following this generic protocol. Note that the kinase buffer composition and the substrates vary for the different kinases included in the “Upstate KinaseProfiler™” panel. Kinase buffer (2.5 μL, 10×—containing MnCl2 when required), active kinase (0.001-0.01 Units; 2.5 μL), specific or Poly(Glu4-Tyr) peptide (5-500 μM or 0.01 mg/ml) in kinase buffer and […] are mixed in an eppendorf on ice. […] The assay squares are transferred to a scintillation vial, 5 ml scintillation cocktail are added and ^32P incorporation (cpm) to the peptide substrate is quantified with a Beckman scintillation counter. Percentage inhibition is calculated for each reaction.

F317L Bcr-abl = molecular target: T2, F317L Bcr-abl (Homo sapiens, UniProt P00519, F317L); experiment: Proliferation of Ba/F3 cells expressing F317L mutant Bcr-abl; format: cell-based
T2 construct: BCR (N-terminal fusion partner); expressed in transfected cells; host or cells: Ba/F3 (murine pro-B cells); the other entry of the earlier key: BCR (P11274, Breakpoint cluster region protein)
Protocol: (§2) 32D-p210 cells are plated into 96 well TC plates at a density of 15,000 cells per well. 50 μL of two fold serial dilutions of the test compound (Cmax is 40 μM) are added to each well (STI571 is included as a positive control). After incubating the cells for 48 hours at 37° C., 5% CO2, 15 μL of MTT (Promega) is added to each well and the cells are incubated for an additional 5 hours. The optical density at 570 nm is quantified spectrophotometrically and IC50 values, the concentration of compound required for 50% inhibition, determined from a dose response curve.
(§3) Compounds of the invention are tested for their antiproliferative effect on Ba/F3 cells expressing either wild type or the mutant forms of BCR-Abl (G250E, E255V, T315I, F317L, M351T) that confers resistance or diminished sensitivity to ST1571. The antiproliferative effect of these compounds on the mutant-BCR-Abl expressing cells and on the non transformed cells were tested at 10, 3.3, 1.1 and 0.37 μM as described above (in media lacking IL3). The IC50 values of the compounds lacking toxicity on the untransformed cells were determined from the dose response curves obtained as describe above.

TrkB = molecular target: T3, TrkB (Homo sapiens, UniProt Q16620); experiment: Upstate KinaseProfiler radio-enzymatic filter binding assay, TrkB; format: biochemical; settings: at a concentration of 10 μM; read-out: percentage inhibition
T3 construct: purchased Upstate
T3 sequence (Q16620 32-822): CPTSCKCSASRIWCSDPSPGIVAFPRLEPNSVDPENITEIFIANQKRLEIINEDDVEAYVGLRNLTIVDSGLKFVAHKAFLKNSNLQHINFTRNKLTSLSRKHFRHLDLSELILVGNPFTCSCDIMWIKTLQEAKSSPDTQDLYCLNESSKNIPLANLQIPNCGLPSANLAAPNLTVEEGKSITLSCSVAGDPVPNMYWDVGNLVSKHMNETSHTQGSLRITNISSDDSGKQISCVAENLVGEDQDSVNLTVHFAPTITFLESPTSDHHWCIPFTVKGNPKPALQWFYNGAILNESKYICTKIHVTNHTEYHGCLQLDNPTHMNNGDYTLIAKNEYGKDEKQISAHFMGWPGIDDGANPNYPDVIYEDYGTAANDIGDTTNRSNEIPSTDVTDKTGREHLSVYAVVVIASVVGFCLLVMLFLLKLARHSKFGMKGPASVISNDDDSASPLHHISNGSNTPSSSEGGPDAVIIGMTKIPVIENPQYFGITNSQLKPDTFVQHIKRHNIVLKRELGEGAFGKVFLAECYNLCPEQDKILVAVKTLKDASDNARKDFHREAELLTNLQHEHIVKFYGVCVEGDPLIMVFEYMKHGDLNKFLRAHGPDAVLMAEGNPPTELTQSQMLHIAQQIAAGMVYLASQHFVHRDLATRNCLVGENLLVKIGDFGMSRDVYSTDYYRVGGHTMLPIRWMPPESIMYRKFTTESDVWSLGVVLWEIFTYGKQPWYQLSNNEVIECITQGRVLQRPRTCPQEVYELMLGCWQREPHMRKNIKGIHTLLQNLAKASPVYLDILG
Protocol: as §1

c-Raf [1] = molecular target: T4, c-Raf (Homo sapiens, UniProt P04049, Y340D/Y341D); experiment: Upstate KinaseProfiler radio-enzymatic filter binding assay, c-RAF; format: biochemical; settings: at a concentration of 10 μM; read-out: percentage inhibition
T4 construct: purchased Upstate
T4 sequence (P04049 306-648 Y340D/Y341D limits assumed): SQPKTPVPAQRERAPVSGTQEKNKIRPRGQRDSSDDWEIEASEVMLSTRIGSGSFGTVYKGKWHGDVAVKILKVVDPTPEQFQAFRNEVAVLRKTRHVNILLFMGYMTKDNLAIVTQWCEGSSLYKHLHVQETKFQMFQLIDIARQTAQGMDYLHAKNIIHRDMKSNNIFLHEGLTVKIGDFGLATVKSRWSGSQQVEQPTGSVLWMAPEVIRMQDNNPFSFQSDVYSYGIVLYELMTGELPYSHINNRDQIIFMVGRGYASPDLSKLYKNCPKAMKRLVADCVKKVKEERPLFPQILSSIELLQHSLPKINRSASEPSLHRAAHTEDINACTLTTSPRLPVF
Protocol: as §1

wild-type Abl = experiment: Upstate KinaseProfiler radio-enzymatic filter binding assay, Abl; format: biochemical; settings: at a concentration of 10 μM
Protocol: as §1

G250E Bcr-abl = molecular target: T5, G250E Bcr-abl (Homo sapiens, UniProt P00519, G250E); experiment: Proliferation of Ba/F3 cells expressing G250E mutant Bcr-abl; format: cell-based
T5 construct: BCR (N-terminal fusion partner); expressed in transfected cells; host or cells: Ba/F3 (murine pro-B cells); the other entry of the earlier key: BCR (P11274, Breakpoint cluster region protein)
Protocol: as §2, §3

p70S6K = molecular target: T6, p70S6K (Homo sapiens, UniProt P23443); experiment: Upstate KinaseProfiler radio-enzymatic filter binding assay, p70S6K; format: biochemical; settings: at a concentration of 10 μM; read-out: percentage inhibition
T6 construct: purchased Upstate
Protocol: as §1

SAPK2α = molecular target: T7, SAPK2α (Homo sapiens, UniProt Q16539); experiment: Upstate KinaseProfiler radio-enzymatic filter binding assay, SAPK2α; format: biochemical; settings: at a concentration of 10 μM; read-out: percentage inhibition
T7 construct: purchased Upstate
T7 sequence (Q16539 whole entry): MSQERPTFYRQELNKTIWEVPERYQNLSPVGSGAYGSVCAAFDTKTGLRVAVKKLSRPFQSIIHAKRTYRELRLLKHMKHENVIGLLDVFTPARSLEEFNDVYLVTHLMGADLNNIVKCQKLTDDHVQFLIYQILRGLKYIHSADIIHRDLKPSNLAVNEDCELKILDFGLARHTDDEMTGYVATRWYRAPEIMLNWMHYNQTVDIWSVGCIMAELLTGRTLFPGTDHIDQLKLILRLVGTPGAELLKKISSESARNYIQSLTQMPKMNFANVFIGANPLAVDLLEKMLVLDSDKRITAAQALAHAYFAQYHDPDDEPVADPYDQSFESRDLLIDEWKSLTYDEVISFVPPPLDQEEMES
Protocol: as §1

FGFR3 [2] = molecular target: T8, FGFR3 (Homo sapiens, UniProt P22607); experiment: Upstate KinaseProfiler radio-enzymatic filter binding assay, FGFR3; format: biochemical; settings: at a concentration of 10 μM; read-out: percentage inhibition
T8 construct: purchased Upstate
T8 sequence (P22607 23-806): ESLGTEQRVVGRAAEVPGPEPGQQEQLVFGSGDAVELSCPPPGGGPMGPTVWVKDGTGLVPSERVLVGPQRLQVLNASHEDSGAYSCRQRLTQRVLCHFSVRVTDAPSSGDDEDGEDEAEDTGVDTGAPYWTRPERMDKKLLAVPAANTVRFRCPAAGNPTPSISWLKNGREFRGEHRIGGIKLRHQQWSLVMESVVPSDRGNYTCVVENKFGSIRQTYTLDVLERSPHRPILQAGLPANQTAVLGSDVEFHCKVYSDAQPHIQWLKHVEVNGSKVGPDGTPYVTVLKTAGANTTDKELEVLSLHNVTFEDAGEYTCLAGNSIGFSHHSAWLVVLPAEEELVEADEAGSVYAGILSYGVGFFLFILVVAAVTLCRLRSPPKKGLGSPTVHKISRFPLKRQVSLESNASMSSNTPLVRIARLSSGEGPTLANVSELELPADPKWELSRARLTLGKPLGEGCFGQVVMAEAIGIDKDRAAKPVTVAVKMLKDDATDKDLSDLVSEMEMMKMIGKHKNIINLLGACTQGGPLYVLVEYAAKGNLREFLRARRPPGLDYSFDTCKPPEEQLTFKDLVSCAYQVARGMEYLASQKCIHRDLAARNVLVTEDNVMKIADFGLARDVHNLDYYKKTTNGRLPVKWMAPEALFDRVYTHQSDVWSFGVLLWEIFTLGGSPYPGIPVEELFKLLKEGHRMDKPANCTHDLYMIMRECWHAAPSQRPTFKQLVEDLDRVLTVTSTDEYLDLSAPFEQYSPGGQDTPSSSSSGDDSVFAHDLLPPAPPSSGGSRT
Protocol: as §1

c-Raf [3] = molecular target: c-Raf (Homo sapiens, UniProt P04049); experiment: c-Raf enzyme assay; format: biochemical
c-Raf (Homo sapiens, UniProt P04049), sequence (P04049 whole entry, species assumed): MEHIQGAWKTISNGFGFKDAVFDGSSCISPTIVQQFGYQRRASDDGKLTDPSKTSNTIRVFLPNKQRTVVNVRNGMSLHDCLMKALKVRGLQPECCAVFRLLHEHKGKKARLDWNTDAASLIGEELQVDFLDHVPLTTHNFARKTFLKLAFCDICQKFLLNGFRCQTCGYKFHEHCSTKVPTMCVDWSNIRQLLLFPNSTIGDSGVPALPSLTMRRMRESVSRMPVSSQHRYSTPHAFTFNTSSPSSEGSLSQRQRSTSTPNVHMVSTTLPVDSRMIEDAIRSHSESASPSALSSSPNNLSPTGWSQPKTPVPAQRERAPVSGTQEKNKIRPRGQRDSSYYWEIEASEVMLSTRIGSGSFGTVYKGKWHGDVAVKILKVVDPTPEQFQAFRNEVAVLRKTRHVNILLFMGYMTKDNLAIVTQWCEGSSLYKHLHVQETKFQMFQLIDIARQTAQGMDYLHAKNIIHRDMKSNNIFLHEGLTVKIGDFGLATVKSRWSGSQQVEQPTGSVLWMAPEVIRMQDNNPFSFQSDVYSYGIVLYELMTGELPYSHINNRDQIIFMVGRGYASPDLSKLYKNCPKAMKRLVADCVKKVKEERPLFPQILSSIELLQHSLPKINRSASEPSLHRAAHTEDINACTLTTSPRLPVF

MKK6 = molecular target: T9, MKK6 (Homo sapiens, UniProt P52564); experiment: Upstate KinaseProfiler radio-enzymatic filter binding assay, MKK6; format: biochemical; settings: at a concentration of 10 μM; read-out: percentage inhibition
T9 construct: purchased Upstate
Protocol: as §1

T315I Bcr-abl = molecular target: T10, T315I Bcr-abl (Homo sapiens, UniProt P00519, T315I); experiment: Proliferation of Ba/F3 cells expressing T315I mutant Bcr-abl; format: cell-based
T10 construct: BCR (N-terminal fusion partner); expressed in transfected cells; host or cells: Ba/F3 (murine pro-B cells); the other entry of the earlier key: BCR (P11274, Breakpoint cluster region protein)
Protocol: as §2, §3

MKK4 = molecular target: T11, MKK4 (Mus musculus, UniProt P47809); experiment: Upstate KinaseProfiler radio-enzymatic filter binding assay, MKK4; format: biochemical; settings: at a concentration of 10 μM; read-out: percentage inhibition
T11 construct: purchased Upstate
Protocol: as §1

wild type Bcr-abl = molecular target: T12, wild type Bcr-abl (Homo sapiens, UniProt P00519); experiment: Proliferation of Ba/F3 cells expressing wild type Bcr-abl; format: cell-based
T12 construct: BCR (N-terminal fusion partner); expressed in transfected cells; host or cells: Ba/F3 (murine pro-B cells); the other entry of the earlier key: BCR (P11274, Breakpoint cluster region protein)
Protocol: as §2, §3

Lck = molecular target: T13, Lck (Homo sapiens, UniProt P06239); experiment: Upstate KinaseProfiler radio-enzymatic filter binding assay, Lck; format: biochemical; settings: at a concentration of 10 μM; read-out: percentage inhibition
T13 construct: purchased Upstate
T13 sequence (P06239 whole entry): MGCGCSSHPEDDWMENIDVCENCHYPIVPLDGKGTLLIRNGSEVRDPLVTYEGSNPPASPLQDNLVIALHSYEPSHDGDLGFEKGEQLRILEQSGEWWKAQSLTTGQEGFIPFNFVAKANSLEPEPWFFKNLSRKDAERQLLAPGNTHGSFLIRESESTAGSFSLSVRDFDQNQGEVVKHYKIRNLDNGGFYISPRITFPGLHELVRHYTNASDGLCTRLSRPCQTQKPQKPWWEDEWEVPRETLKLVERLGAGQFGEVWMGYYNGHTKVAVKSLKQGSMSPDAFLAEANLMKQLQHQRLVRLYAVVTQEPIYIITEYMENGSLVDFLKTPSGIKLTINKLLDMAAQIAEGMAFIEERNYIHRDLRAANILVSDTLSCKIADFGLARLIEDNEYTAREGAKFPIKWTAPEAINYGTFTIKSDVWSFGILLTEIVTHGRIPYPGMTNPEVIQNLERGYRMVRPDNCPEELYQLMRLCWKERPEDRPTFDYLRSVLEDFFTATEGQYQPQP
Protocol: as §1

JNK1α1 = molecular target: T14, JNK1α1 (Homo sapiens, UniProt P45983); experiment: Upstate KinaseProfiler radio-enzymatic filter binding assay, JNK1α1; format: biochemical; settings: at a concentration of 10 μM; read-out: percentage inhibition
T14 construct: purchased Upstate
T14 sequence (P45983 1-384 isoform P45983-2): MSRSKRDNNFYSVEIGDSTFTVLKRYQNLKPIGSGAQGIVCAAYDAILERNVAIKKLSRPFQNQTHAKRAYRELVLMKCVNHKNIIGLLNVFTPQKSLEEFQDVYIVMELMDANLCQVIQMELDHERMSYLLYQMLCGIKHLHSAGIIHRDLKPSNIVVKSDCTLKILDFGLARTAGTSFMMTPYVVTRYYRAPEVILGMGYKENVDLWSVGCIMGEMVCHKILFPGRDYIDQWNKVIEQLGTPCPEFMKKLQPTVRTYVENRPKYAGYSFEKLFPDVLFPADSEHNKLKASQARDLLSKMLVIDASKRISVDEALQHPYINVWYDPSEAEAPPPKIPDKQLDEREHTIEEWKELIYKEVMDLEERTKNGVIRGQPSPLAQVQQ
Protocol: as §1

CSK = molecular target: T15, CSK (Homo sapiens, UniProt P41240); experiment: Upstate KinaseProfiler radio-enzymatic filter binding assay, CSK; format: biochemical; settings: at a concentration of 10 μM; read-out: percentage inhibition
T15 construct: purchased Upstate
Protocol: as §1

b-Raf = b-Raf (Homo sapiens, UniProt P15056); experiment: b-Raf enzyme assay; format: biochemical
Protocol: Compounds of the invention are tested for their ability to inhibit the activity of b-Raf. The assay is carried out in 384-well MaxiSorp plates (NUNC) with black walls and clear bottom. The substrate, IκBα is diluted in DPBS (1:750) and 15 μl is added to each well. The plates are incubated at 4° C. overnight and washed 3 times with TBST (25 mM Tris, pH 8.0, 150 mM NaCl and 0.05% Tween-20) using the EMBLA plate washer. Plates are blocked by Superblock (15 μl/well) for 3 hours at room temperature, washed 3 times with TBST and pat-dried. Assay buffer containing 20 μM ATP (10 μl) is added to each well followed by 100 nl or 500 nl of compound. B-Raf is diluted in the assay buffer (1 μl into 25 μl) and 10 μl of diluted b-Raf is added to each well (0.4 μg/well). The plates are incubated at room temperature for 2.5 hours. The kinase reaction is stopped by washing the plates 6 times with TBST. Phosph-IκBα (Ser32/36) antibody is diluted in Superblock (1:10,000) and 15 μl is added to each well. The plates are incubated at 4° C. overnight and washed 6 times with TBST. AP-conjugated goat-anti-mouse IgG is diluted in Superblock (1:1,500) and 15 μl is added to each well. Plates are incubated at room temperature for 1 hour and washed 6 times with TBST. […] Plates are read on Acquest or Analyst GT using a Fluorescence Intensity Nanxin BBT anion (505 dichroic mirror).

E255V Bcr-abl = molecular target: T16, E255V Bcr-abl (Homo sapiens, UniProt P00519, E255V); experiment: Proliferation of Ba/F3 cells expressing E255V mutant Bcr-abl; format: cell-based
T16 construct: BCR (N-terminal fusion partner); expressed in transfected cells; host or cells: Ba/F3 (murine pro-B cells); the other entry of the earlier key: BCR (P11274, Breakpoint cluster region protein)
Protocol: as §2, §3

M351T Bcr-abl = molecular target: T17, M351T Bcr-abl (Homo sapiens, UniProt P00519, M351T); experiment: Proliferation of Ba/F3 cells expressing M351T mutant Bcr-abl; format: cell-based
T17 construct: BCR (N-terminal fusion partner); expressed in transfected cells; host or cells: Ba/F3 (murine pro-B cells); the other entry of the earlier key: BCR (P11274, Breakpoint cluster region protein)
Protocol: as §2, §3

FGFR3 [4] = molecular target: T8, FGFR3; experiment: FGFR3 (Enzymatic Assay); format: biochemical; settings: FGFR3 enzyme assay
Protocol: Kinase activity assay with purified FGFR3 (Upstate) is carried out in a final volume of 10 μL containing 0.25 μg/mL of enzyme in kinase buffer (30 mM Tris-HCl pH7.5, 15 mM MgCl2, 4.5 mM MnCl2, 15 μM Na3VO4 and 50 μg/mL BSA), and substrates (5 μg/mL biotin-poly-EY(Glu, Tyr) (CIS-US, Inc.) and 3 μM ATP). Two solutions are made: the first solution of 5 μl contains the FGFR3 enzyme in kinase buffer was first dispensed into 384-format ProxiPlate® (Perkin-Elmer) followed by adding 50 nL of compounds dissolved in DMSO, then 5 μl of second solution contains the substrate (poly-EY) and ATP in kinase buffer was added to each wells. The reactions are incubated at room temperature for one hour, stopped by adding 10 μL of HTRF detection mixture, which contains 30 mM Tris-HCl pH7.5, 0.5 M KF, 50 mM ETDA, 0.2 mg/mL BSA, 15 μg/mL streptavidin-XL665 (CIS-US, Inc.) and 150 ng/mL cryptate conjugated anti-phosphotyrosine antibody (CIS-US, Inc.). After one hour of room temperature incubation to allow for streptavidin-biotin interaction, time resolved florescent signals are read on Analyst GT (Molecular Devices Corp.). IC50 values are calculated by linear regression analysis of the percentage inhibition of each compound at 12 concentrations (1:3 dilution from 50 μM to 0.28 nM).

SAPK2β = molecular target: T18, SAPK2β (Homo sapiens, UniProt Q15759); experiment: Upstate KinaseProfiler radio-enzymatic filter binding assay, SAPK2β; format: biochemical; settings: at a concentration of 10 μM; read-out: percentage inhibition
T18 construct: purchased Upstate
Protocol: as §1

JNK2 α2 = molecular target: T19, JNK2 α2 (Homo sapiens, UniProt P45984); experiment: Upstate KinaseProfiler radio-enzymatic filter binding assay, JNK2α2; format: biochemical; settings: at a concentration of 10 μM; read-out: percentage inhibition
T19 construct: purchased Upstate
T19 sequence (P45984 whole entry): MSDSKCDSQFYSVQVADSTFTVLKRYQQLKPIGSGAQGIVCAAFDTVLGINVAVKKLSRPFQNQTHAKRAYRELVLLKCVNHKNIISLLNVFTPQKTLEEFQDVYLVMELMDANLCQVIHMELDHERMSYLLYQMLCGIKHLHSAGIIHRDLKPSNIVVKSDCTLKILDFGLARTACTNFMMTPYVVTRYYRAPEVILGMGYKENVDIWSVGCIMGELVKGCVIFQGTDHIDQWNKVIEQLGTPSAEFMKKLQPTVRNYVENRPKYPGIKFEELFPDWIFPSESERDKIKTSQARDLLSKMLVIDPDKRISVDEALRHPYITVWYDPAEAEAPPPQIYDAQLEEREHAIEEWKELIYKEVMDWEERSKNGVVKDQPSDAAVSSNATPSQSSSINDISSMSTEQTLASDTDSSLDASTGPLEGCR
Protocol: as §1

Ba/F3-TEL-FGFR3 cells = experiment: FGFR3 (Cellular Assay); format: cell-based
Protocol: Compounds of the invention are tested for their ability to inhibit transformed Ba/F3-TEL-FGFR3 cells proliferation, which is depended on FGFR3 cellular kinase activity. Ba/F3-TEL-FGFR3 are cultured up to 800,000 cells/mL in suspension, with RPMI 1640 supplemented with 10% fetal bovine serum as the culture medium. Cells are dispensed into 384-well format plate at 5000 cell/well in 50 μL culture medium. Compounds of the invention are dissolved and diluted in dimethylsufoxide (DMSO). Twelve points 1:3 serial dilutions are made into DMSO to create concentrations gradient ranging typically from 10 mM to 0.05 μM. Cells are added with 50 nL of diluted compounds and incubated for 48 hours in cell culture incubator. AlamarBlue® (TREK Diagnostic Systems), which can be used to monitor the reducing environment created by proliferating cells, are added to cells at final concentration of 10%. After additional four hours of incubation in a 37° C. cell culture incubator, fluorescence signals from reduced AlamarBlue® (Excitation at 530 nm, Emission at 580 nm) are quantified on Analyst GT (Molecular Devices Corp.). IC50 values are calculated by linear regression analysis of the percentage inhibition of each compound at 12 concentrations.

T1 sequence (P51813 whole entry): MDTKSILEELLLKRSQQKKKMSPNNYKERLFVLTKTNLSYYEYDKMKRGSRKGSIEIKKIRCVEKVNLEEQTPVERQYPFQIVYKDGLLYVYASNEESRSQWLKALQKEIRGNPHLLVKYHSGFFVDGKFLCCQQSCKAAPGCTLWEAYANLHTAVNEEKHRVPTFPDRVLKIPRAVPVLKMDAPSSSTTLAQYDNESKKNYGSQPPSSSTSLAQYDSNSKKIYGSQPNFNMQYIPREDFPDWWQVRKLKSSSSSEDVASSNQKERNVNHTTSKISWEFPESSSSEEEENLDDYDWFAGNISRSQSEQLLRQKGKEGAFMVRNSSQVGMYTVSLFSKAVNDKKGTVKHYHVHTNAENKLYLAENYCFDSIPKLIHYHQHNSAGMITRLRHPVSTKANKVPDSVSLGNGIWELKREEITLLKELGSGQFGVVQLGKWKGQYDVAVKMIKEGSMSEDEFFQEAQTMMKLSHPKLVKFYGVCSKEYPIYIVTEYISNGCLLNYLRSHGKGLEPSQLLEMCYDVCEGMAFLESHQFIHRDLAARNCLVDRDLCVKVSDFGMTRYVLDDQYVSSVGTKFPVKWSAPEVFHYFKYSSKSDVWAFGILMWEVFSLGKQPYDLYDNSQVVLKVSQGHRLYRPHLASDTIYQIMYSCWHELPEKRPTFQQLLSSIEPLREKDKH

inhibition at 10 µM (Bmx): 100% | pIC50 (F317L Bcr-abl): > 9.30 | inhibition at 10 µM (TrkB): 97% | inhibition at 10 µM (c-Raf [1]): 90% | percentage inhibition (wild-type Abl): 100% | pIC50 (G250E Bcr-abl): 7.37 | inhibition at 10 µM (p70S6K): 86% | inhibition at 10 µM (SAPK2α): 95% | inhibition at 10 µM (FGFR3 [2]): 96% | pIC50 (c-Raf [3]): 7.77 | inhibition at 10 µM (MKK6): 97% | pIC50 (T315I Bcr-abl): 6.91 | inhibition at 10 µM (MKK4): 91% | pIC50 (wild type Bcr-abl): > 9.30 | inhibition at 10 µM (Lck): 99% | inhibition at 10 µM (JNK1α1): 89% | inhibition at 10 µM (CSK): 100% | pIC50 (b-Raf): 6.30 | pIC50 (E255V Bcr-abl): 7.32 | pIC50 (M351T Bcr-abl): 8.05 | pIC50 (FGFR3 [4]): 6.97 | inhibition at 10 µM (SAPK2β): 98% | inhibition at 10 µM (JNK2 α2): 99% | pIC50 (Ba/F3-TEL-FGFR3 cells): 8.52
SMILES: COc1ccc(Nc2cc3c(cn2)cc(-c2cc(NC(=O)c4cccc(C(F)(F)F)c4)ccc2C)c(=O)n3C)cn1 [Example 8, N-{3-[7-(6-Methoxy-pyridin-3-ylamino)-1-methyl-2-oxo-1,2-dihydro-[1,6]naphthyridin-3-yl]-4-methyl-phenyl}-3-trifluoromethyl-benzamide]
